The test system of the first test is Huh7 cells containing HCV replicons with an integrated luciferase reporter gene. Description: HCV Replicon Assay (luciferase reporter). Type of test: cell-based. Conditions: Hepatitis C virus, Huh-7, 48 h, read-out: EC50 nM. The protocol: Huh7 cells containing HCV replicons with an integrated luciferase reporter gene are maintained at 37° C. in 5% CO2 in Dulbecco's modified Eagle's medium (DMEM; Mediatech, Herndon, Va.) containing 10% heat-inactivated fetal bovine serum (FBS; Mediatech, Herndon, Va.), 2 mM L-glutamine (Cambrex Bioscience, Walkersville, Md.), 1% non essential amino acids (Lonza, Walkersville, Md.), 50 IU/mL penicillin (Mediatech, Herndon, Va.), […] streptomycin (Mediatech, Herndon, Va.) and 0.5 mg/mL G418 (Promega, Madison, Wis.). Cells are sub-divided 1:3 or 4 every 2-3 days.
24 h prior to the assay, Huh7 cells containing sub-genomic HCV replicons are collected, counted, and plated in Nunclon 96-well tissue culture plates (ThermoFisher, Rochester, N.Y.) at 5000 cells/well in […] standard maintenance medium (above) and incubated in the conditions above. To initiate the assay, culture medium is removed, and replaced with […] maintenance media lacking G418. Test compounds are serially diluted three-fold in dimethyl sulfoxide (DMSO) in two duplicate rows for each EC50 determination. These compound solutions are diluted ten-fold in DMEM lacking serum and G418. […] of these compound solutions in media are added to duplicate tissue culture plates. The final volume is 100 μL with a DMSO concentration of 1%. Compound concentrations are adjusted to appropriately define a dose response curve. Typical dilution series range from […] to 1.69 nM final concentrations to 1 nM to 16.9 fM final. Plates are incubated at 37° C. for approximately 48 hr.
Following incubation, media is removed from one of the two duplicate plates and replicon-reporter luciferase activity is measured using a Bright-Glo luciferase assay kit (Promega, Madison, Wis.) according to manufacturer's instructions. Semi-log plots of luciferase activity versus the logarithm of compound concentration are fit to a 4-parameter logistic function using XLfit software (IDBS Inc., Guildford, UK) to determine EC50.
In general terms: In antiviral work, replicon cells carry a viral genome segment that copies itself.
For the compound `COC(=O)N[C@H](C(=O)N1CCC[C@H]1C(=O)Nc1ccc2cc(-c3ccccc3)ccc2c1)C(C)C` [Compound 502], the EC50 was over 100 nM.

Still in this test, the particulars now being: Hepatitis C virus, Huh-7; Huh7 sub-genomic HCV replicon, luciferase activity, approximately 48 hr incubation; read-out: EC50.
As for `COC(=O)N[C@H](C(=O)N1CCC[C@H]1c1nc(-c2ccc(-c3ccc(-c4c[nH]c([C@@H]5CCCN5C(=O)[C@@H](NC(=O)OC)c5ccc(F)cc5)n4)cc3)cc2)c[nH]1)c1ccc(F)cc1` [Compound 421], the EC50 was under 10 nM.

Take `COC(=O)N[C@H](C(=O)N1CCC[C@H]1c1nc2ccc(-c3ccc(-c4ccc5nc([C@@H]6CCCN6C(=O)[C@@H](NC(=O)OC)c6ccc(F)cc6)[nH]c5c4)cc3)cc2[nH]1)c1ccc(F)cc1` [Compound 422]: the EC50 is under 10 nM. For the compound `COC(=O)N[C@H](C(=O)N1CCC[C@H]1c1nc(-c2ccc(-c3ccc(-c4c[nH]c([C@@H]5CCCN5C(=O)[C@@H](NC(=O)OC)C(C(F)(F)F)C(F)(F)F)n4)cc3)cc2)c[nH]1)C(C(F)(F)F)C(F)(F)F` [Compound 423], the half-maximal effective concentration (EC50) is under 10 nM. For the compound `COC(=O)N[C@H](C(=O)N1CCC[C@H]1c1nc(-c2ccc(-c3ccc(-c4c[nH]c([C@@H]5CCCN5C(=O)[C@@H](NC(=O)OC)c5cccc(F)c5)n4)cc3)cc2)c[nH]1)c1cccc(F)c1` [Compound 424], the EC50 was under 10 nM. As to `COC(=O)N[C@H](C(=O)N1CCC[C@H]1C(=O)OCC(=O)c1ccc(N2CCN(Cc3ccccc3)CC2)cc1)C(C)C` [Compound 501], the 50% effective concentration (EC50) was over 100 nM.

`COC(=O)N[C@H](C(=O)N1CCC[C@H]1c1nc(-c2ccccc2)c[nH]1)C(C)C` [Compound 504]: the EC50 is over 100 nM. On the same count and under the same terms, for `COc1ccc2cc(-c3c[nH]c([C@@H]4CCCN4C(=O)OC(C)(C)C)n3)ccc2c1` [Compound 505] the value was over 100 nM. Regarding `COC(=O)N[C@H](C(=O)N1CCC[C@H]1C(=O)NCc1ccc(-c2ccc(-c3c[nH]c([C@@H]4CCCN4C(=O)[C@@H](NC(=O)OC)C(C)C)n3)cc2)cc1)C(C)C` [Compound 506], the EC50 is under 10 nM. Still for that read-out and setting: for `COC(=O)N[C@H](C(=O)N1CCC[C@H]1c1nc(-c2ccc(-c3ccc(-c4c[nH]c([C@@H]5CCCN5C(=O)[C@@H](NC(=O)OC)C(C)C)n4)c4c3CCC4)c3c2CCC3)c[nH]1)C(C)C` [Compound 601] the value was under 10 nM; for `COC(=O)N[C@H](C(=O)N1CCC[C@H]1c1nc(-c2ccc(-c3ccc(-c4c[nH]c([C@@H]5CCCN5C(=O)[C@@H](NC(=O)OC)C(C)C)n4)c4ocnc34)c3ncoc23)c[nH]1)C(C)C` [Compound 602], under 10 nM.

Regarding `COC(=O)NC(C(=O)N1CCC[C@H]1c1nc(-c2ccc(-c3ccc(-c4c[nH]c(N5CCCN5C(=O)[C@@H](NC(=O)OC)C(C)C)n4)c4scnc34)c3ncsc23)c[nH]1)C(C)C` (stereo partly drawn) [Compound 603], the EC50 is under 10 nM. Still for that read-out and setting: for `COC(=O)N[C@H](C(=O)N1CCC[C@@]1(C)c1nc(-c2ccc(-c3ccc(-c4c[nH]c([C@]5(C)CCCN5C(=O)[C@@H](NC(=O)OC)C(C)C)n4)c4c3CCC4)c3c2CCC3)c[nH]1)C(C)C` [Compound 604] the value was under 10 nM; for `COC(=O)N[C@H](C(=O)N1CCC[C@H]1c1nc(-c2ccc(-c3ccc(-c4c[nH]c([C@]5(C)CCCN5C(=O)[C@@H](NC(=O)OC)C(C)C)n4)c4c3CCC4)c3c2CCC3)c[nH]1)C(C)C` [Compound 605], under 10 nM. Same read-out and setting: for `COC(=O)N[C@H]1CC[C@H]2CC[C@@H](c3nc(-c4ccc(-c5ccc(-c6c[nH]c([C@@H]7CC[C@@H]8CC[C@H](NC(=O)OC)C(=O)N87)n6)cc5)cc4)c[nH]3)N2C1=O` [Compound 801] the value was over 100 nM; for `COC(=O)N[C@H]1CC[C@H]2CC[C@@H](C(=O)Nc3ccc(/C=C/c4ccc(NC(=O)[C@@H]5CC[C@@H]6CC[C@H](NC(=O)OC)C(=O)N65)cc4)cc3)N2C1=O` [Compound 802], over 100 nM. Same read-out and setting: for `COC(=O)N[C@H]1CC[C@H]2CC[C@@H](c3nc(-c4ccc(-c5ccc(-c6c[nH]c([C@@H]7CCCN7C(=O)[C@@H](NC(=O)OC)C(C)C)n6)cc5)cc4)c[nH]3)N2C1=O` [Compound 803] the value was under 10 nM; for `COC(=O)N[C@H]1CC[C@@H]2CC[C@@H](c3nc(-c4ccc(-c5ccc(-c6c[nH]c([C@@H]7CCCN7C(=O)[C@@H](NC(=O)OC)C(C)C)n6)cc5)cc4)c[nH]3)N2C1=O` [Compound 804], under 10 nM; for `COC(=O)N[C@H]1CC[C@H]2CC[C@@H](c3nc(-c4ccc(-c5ccc(-c6c[nH]c([C@]7(C)CCCN7C(=O)[C@@H](NC(=O)OC)C(C)C)n6)cc5)cc4)c[nH]3)N2C1=O` [Compound 805], 10 to 100 nM. For the compound `COC(=O)N[C@H]1CCC[C@@H]2CC[C@@H](c3nc(-c4ccc(-c5ccc(-c6c[nH]c([C@@H]7CCCC7C(=O)[C@@H](NC(=O)OC)C(C)C)n6)cc5)cc4)c[nH]3)N2C1=O` (stereo partly drawn) [Compound 806], the EC50 is under 10 nM.

`COC(=O)N[C@H]1CCC[C@H]2CC[C@@H](c3nc(-c4ccc(-c5ccc(-c6c[nH]c([C@@H]7CCCN7C(=O)[C@@H](NC(=O)OC)C(C)C)n6)cc5)cc4)c[nH]3)N2C1=O` [Compound 807]: the EC50 is under 10 nM.

One may read the EC50 as the concentration at which the effect is half-maximal.
